Data: ChEMBL document CHEMBL5113525, “Discovery of the Novel 1H-Pyrrolo[2,3-b]pyridine Derivative as a Potent Type II CDK8 Inhibitor against Colorectal Cancer” (J Med Chem, 2022)
Calls of active or inactive are those of the source. The rule behind the calls is not given here.

Key:
[1] = molecular target: Mitogen-activated protein kinase kinase kinase 11 (Homo sapiens) (UniProt Q16584); assay: Inhibition of human MLK3 at 1 uM relative to control
[2] = molecular target: Aurora kinase B (Homo sapiens) (UniProt Q96GD4); assay: Inhibition of human Aurora B at 1 uM relative to control
[3] = molecular target: Mitogen-activated protein kinase kinase kinase 21 (Homo sapiens) (UniProt Q5TCX8); assay: Inhibition of human MLK4 at 1 uM relative to control
[4] = molecular target: Vascular endothelial growth factor receptor 1 (Homo sapiens) (UniProt P17948); assay: Inhibition of human FLT1 at 1 uM relative to control
[5] = molecular target: Serine/threonine-protein kinase pim-2 (Homo sapiens) (UniProt Q9P1W9); assay: Inhibition of human PIM2 at 1 uM relative to control
[6] = Half life in Sprague-Dawley rat at 10 mg/kg, po measured upto 12 hrs by LC-MS/MS analysis; assay type: ADME, organism-based; conditions: in vivo
[7] = molecular target: Tyrosine-protein kinase receptor UFO (Homo sapiens) (UniProt P30530); assay: Inhibition of human AXL at 1 uM relative to control
[8] = molecular target: Receptor-type tyrosine-protein kinase FLT3 (Homo sapiens) (UniProt P36888); assay: Inhibition of human FLT3 at 1 uM relative to control
[9] = Half life in Sprague-Dawley rat at 5 mg/kg, iv measured upto 12 hrs by LC-MS/MS analysis; assay type: ADME, organism-based; conditions: in vivo
[10] = molecular target: Epidermal growth factor receptor (Homo sapiens) (UniProt P00533); assay: Inhibition of human EGFR at 1 uM relative to control
[11] = molecular target: Citron Rho-interacting kinase (Homo sapiens) (UniProt O14578); assay: Inhibition of human CRIK at 1 uM relative to control
[12] = molecular target: Dual specificity protein kinase CLK3 (Homo sapiens) (UniProt P49761); assay: Inhibition of human CLK3 at 1 uM relative to control
[13] = molecular target: Discoidin domain-containing receptor 2 (Homo sapiens) (UniProt Q16832); assay: Inhibition of human DDR2 at 1 uM relative to control
[14] = molecular target: Fibroblast growth factor receptor 3 (Homo sapiens) (UniProt P22607); assay: Inhibition of human FGFR3 at 1 uM relative to control
[15] = Clearance in Sprague-Dawley rat at 5 mg/kg, iv measured upto 12 hrs by LC-MS/MS analysis; assay type: ADME, organism-based; conditions: in vivo
[16] = molecular target: Tyrosine-protein kinase JAK2 (Homo sapiens) (UniProt O60674); assay: Inhibition of human JAK2 at 1 uM relative to control
[17] = molecular target: Tyrosine-protein kinase JAK3 (Homo sapiens) (UniProt P52333); assay: Inhibition of human JAK3 at 1 uM relative to control
[18] = MRT in Sprague-Dawley rat at 5 mg/kg, iv measured upto 12 hrs by LC-MS/MS analysis; assay type: ADME, organism-based; conditions: in vivo
[19] = molecular target: Serine/threonine-protein kinase pim-3 (Homo sapiens) (UniProt Q86V86); assay: Inhibition of human PIM3 at 1 uM relative to control
[20] = molecular target: Mitogen-activated protein kinase 8 (Homo sapiens) (UniProt P45983); assay: Inhibition of human JNK1-alpha-2 at 1 uM relative to control
[21] = Oral bioavailability in Sprague-Dawley rat at 10 mg/kg measured upto 12 hrs by LC-MS/MS analysis; assay type: ADME, organism-based; conditions: in vivo
[22] = molecular target: Tyrosine-protein kinase Mer (Homo sapiens) (UniProt Q12866); assay: Inhibition of human MER at 1 uM relative to control
[23] = molecular target: Serine/threonine-protein kinase PAK 1 (Homo sapiens) (UniProt Q13153); assay: Inhibition of human PAK1 at 1 uM relative to control
[24] = molecular target: Cyclin-dependent kinase 5/CDK5 activator 1 (Homo sapiens) (UniProt Q00535+Q15078); assay: Inhibition of human CDK5/p35 at 1 uM relative to control; assay type: protein-complex assay
[25] = molecular target: Fibroblast growth factor receptor 1 (Homo sapiens) (UniProt P11362); assay: Inhibition of human FGFR1 at 1 uM relative to control
[26] = MRT in Sprague-Dawley rat at 10 mg/kg, po measured upto 12 hrs by LC-MS/MS analysis; assay type: ADME, organism-based; conditions: in vivo
[27] = molecular target: Fibroblast growth factor receptor 4 (Homo sapiens) (UniProt P22455); assay: Inhibition of human FGFR4 at 1 uM relative to control
[28] = molecular target: Phosphatidylinositol 4-phosphate 3-kinase C2 domain-containing subunit alpha (Homo sapiens) (UniProt O00443); assay: Inhibition of human PI3K-C2-alpha at 1 uM relative to control
[29] = molecular target: LIM domain kinase 1 (Homo sapiens) (UniProt P53667); assay: Inhibition of human LIMK1 at 1 uM relative to control
[30] = Cmax in Sprague-Dawley rat at 10 mg/kg, po measured upto 12 hrs by LC-MS/MS analysis; assay type: ADME, organism-based; set-up: time < 12 hrs, dose 10 mg/kg, route po; conditions: in vivo
[31] = molecular target: Tyrosine-protein kinase Lck (Homo sapiens) (UniProt P06239); assay: Inhibition of human LCK at 1 uM relative to control
[32] = Cmax in Sprague-Dawley rat at 5 mg/kg, iv measured upto 12 hrs by LC-MS/MS analysis; assay type: ADME, organism-based; set-up: dose 5 mg/kg, time < 12 hrs, route iv; conditions: in vivo
[33] = molecular target: Mitogen-activated protein kinase kinase kinase 9 (Homo sapiens) (UniProt P80192); assay: Inhibition of human MLK1 at 1 uM relative to control
[34] = molecular target: High affinity nerve growth factor receptor (Homo sapiens) (UniProt P04629); assay: Inhibition of human TRKA at 1 uM relative to control
[35] = molecular target: Tyrosine-protein kinase JAK1 (Homo sapiens) (UniProt P23458); assay: Inhibition of human JAK1 at 1 uM relative to control
[36] = molecular target: Fibroblast growth factor receptor 2 (Homo sapiens) (UniProt P21802); assay: Inhibition of human FGFR2 at 1 uM relative to control
[37] = molecular target: Catenin beta-1 (Homo sapiens) (UniProt P35222); assay: Inhibition of beta-catenin in human HCT-116 cells assessed as accumulation in cytoplasm incubated for 24 hrs by DAPI staining based immunofluorescence assay; assay type: cell-based
[38] = Tmax in Sprague-Dawley rat at 10 mg/kg, po measured upto 12 hrs by LC-MS/MS analysis; assay type: ADME, organism-based; conditions: in vivo
[39] = molecular target: Mitogen-activated protein kinase 8 (Homo sapiens) (UniProt P45983); assay: Inhibition of human JNK1-alpha-1 at 1 uM relative to control
[40] = molecular target: Aurora kinase C (Homo sapiens) (UniProt Q9UQB9); assay: Inhibition of human Aurora C at 1 uM relative to control
[41] = Clearance in Sprague-Dawley rat at 10 mg/kg, po measured upto 12 hrs by LC-MS/MS analysis; assay type: ADME, organism-based; conditions: in vivo
[42] = molecular target: Glycogen synthase kinase-3 beta (Homo sapiens) (UniProt P49841); assay: Inhibition of human GSK3B at 1 uM relative to control
[43] = molecular target: Hepatocyte growth factor receptor (Homo sapiens) (UniProt P08581); assay: Inhibition of human MET at 1 uM relative to control
[44] = AUC(0 to infinity) in Sprague-Dawley rat at 10 mg/kg, po measured upto 12 hrs by LC-MS/MS analysis; assay type: ADME, organism-based; set-up: dose 10 mg/kg, time < 12 hrs, route po; conditions: in vivo

Chain of Mitogen-activated protein kinase 8 (Homo sapiens) (P45983 whole entry): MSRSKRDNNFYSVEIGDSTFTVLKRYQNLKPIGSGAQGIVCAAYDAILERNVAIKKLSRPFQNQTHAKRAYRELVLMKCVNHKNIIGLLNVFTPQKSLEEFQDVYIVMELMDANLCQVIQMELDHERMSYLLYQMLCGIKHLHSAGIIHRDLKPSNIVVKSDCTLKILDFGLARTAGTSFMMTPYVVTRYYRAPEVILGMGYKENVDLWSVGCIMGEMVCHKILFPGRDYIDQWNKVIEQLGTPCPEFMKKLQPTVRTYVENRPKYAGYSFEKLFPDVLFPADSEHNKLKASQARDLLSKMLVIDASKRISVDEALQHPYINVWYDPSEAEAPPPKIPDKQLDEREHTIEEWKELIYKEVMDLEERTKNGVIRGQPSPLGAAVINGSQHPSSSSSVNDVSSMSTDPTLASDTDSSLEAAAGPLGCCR
Chain of Glycogen synthase kinase-3 beta (Homo sapiens) (P49841 whole entry, looked up): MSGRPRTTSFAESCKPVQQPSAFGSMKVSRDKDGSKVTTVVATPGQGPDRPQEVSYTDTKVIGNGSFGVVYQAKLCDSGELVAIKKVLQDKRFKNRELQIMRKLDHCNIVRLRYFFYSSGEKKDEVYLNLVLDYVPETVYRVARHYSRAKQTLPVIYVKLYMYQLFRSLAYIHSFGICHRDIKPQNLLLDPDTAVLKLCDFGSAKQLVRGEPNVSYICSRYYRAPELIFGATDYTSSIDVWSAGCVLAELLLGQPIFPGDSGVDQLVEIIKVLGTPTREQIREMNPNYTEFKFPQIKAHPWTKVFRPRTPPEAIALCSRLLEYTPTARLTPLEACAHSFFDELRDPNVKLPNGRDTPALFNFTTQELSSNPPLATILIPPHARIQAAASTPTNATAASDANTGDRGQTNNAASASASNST
Chain of Catenin beta-1 (Homo sapiens) (P35222 whole entry): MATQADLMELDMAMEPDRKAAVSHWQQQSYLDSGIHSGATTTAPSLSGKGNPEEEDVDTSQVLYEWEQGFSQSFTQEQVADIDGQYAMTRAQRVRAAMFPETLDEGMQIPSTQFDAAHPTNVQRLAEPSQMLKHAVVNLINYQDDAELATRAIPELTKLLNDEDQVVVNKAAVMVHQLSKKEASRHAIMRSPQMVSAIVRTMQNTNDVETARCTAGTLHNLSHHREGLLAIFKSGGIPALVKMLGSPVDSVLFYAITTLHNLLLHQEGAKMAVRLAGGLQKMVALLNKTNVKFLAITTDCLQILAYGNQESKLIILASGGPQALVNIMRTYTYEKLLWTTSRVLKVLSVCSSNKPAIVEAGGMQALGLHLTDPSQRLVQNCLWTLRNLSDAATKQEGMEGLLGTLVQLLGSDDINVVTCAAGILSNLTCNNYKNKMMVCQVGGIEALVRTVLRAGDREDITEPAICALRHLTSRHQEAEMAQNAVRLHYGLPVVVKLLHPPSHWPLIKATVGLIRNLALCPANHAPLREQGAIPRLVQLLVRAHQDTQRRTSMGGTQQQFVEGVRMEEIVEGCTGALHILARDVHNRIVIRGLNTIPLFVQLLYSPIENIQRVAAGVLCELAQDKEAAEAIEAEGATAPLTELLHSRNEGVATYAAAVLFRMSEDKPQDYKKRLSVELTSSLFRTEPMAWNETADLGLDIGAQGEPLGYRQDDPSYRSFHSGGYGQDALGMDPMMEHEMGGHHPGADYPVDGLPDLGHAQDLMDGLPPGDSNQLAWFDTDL
Chain of Vascular endothelial growth factor receptor 1 (Homo sapiens) (P17948 whole entry): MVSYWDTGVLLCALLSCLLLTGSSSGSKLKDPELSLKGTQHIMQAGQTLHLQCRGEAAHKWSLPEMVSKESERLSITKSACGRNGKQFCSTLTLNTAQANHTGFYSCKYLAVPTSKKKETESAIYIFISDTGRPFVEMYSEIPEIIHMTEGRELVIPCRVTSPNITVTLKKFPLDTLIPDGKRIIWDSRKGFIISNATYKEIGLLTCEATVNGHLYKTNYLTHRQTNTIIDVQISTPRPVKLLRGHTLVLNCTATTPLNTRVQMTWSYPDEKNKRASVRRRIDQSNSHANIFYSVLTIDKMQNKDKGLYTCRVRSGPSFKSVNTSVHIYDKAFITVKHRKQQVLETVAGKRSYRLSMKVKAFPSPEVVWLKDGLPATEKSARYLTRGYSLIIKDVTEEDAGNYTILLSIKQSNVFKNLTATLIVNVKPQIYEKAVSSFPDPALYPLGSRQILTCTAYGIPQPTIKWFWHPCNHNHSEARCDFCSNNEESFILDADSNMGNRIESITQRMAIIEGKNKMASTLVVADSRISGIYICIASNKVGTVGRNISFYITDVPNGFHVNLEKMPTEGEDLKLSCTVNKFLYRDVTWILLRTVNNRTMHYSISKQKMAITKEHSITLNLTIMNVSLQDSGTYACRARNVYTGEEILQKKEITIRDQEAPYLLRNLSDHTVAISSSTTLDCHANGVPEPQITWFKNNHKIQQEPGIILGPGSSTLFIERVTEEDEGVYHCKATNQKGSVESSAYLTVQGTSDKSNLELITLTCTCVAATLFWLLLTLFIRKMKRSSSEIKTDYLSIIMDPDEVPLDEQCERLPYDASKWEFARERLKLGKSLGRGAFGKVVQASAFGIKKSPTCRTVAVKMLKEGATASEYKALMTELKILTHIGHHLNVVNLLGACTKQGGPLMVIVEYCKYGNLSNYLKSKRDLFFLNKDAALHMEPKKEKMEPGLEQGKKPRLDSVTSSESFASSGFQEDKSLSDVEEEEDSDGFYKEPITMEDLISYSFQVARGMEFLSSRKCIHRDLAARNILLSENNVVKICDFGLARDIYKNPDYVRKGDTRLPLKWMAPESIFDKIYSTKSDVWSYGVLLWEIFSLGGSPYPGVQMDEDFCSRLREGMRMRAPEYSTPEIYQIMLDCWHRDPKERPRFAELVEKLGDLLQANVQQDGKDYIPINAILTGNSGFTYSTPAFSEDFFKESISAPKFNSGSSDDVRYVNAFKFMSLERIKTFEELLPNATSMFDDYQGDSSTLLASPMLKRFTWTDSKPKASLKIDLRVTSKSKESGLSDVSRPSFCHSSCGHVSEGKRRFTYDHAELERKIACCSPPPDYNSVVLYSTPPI
Chain of LIM domain kinase 1 (Homo sapiens) (P53667 whole entry, looked up, the tested form may be a part): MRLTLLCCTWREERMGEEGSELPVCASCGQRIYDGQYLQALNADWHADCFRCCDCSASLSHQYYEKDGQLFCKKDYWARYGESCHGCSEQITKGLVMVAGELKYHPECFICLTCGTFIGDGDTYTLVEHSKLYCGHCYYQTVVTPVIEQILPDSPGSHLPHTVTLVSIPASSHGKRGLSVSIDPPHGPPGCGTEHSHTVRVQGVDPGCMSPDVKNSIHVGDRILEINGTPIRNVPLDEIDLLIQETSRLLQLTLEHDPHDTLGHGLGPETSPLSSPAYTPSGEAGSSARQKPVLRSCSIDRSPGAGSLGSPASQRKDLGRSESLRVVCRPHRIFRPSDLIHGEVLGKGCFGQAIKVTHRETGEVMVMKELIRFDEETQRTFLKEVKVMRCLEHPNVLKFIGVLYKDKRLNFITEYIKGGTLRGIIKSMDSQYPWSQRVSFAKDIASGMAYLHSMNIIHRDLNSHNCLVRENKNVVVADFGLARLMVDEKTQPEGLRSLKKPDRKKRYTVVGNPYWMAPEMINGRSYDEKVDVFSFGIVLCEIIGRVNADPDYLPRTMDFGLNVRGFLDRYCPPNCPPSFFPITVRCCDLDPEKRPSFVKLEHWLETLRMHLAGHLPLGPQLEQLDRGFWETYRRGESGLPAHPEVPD
Chain of Hepatocyte growth factor receptor (Homo sapiens) (P08581 whole entry): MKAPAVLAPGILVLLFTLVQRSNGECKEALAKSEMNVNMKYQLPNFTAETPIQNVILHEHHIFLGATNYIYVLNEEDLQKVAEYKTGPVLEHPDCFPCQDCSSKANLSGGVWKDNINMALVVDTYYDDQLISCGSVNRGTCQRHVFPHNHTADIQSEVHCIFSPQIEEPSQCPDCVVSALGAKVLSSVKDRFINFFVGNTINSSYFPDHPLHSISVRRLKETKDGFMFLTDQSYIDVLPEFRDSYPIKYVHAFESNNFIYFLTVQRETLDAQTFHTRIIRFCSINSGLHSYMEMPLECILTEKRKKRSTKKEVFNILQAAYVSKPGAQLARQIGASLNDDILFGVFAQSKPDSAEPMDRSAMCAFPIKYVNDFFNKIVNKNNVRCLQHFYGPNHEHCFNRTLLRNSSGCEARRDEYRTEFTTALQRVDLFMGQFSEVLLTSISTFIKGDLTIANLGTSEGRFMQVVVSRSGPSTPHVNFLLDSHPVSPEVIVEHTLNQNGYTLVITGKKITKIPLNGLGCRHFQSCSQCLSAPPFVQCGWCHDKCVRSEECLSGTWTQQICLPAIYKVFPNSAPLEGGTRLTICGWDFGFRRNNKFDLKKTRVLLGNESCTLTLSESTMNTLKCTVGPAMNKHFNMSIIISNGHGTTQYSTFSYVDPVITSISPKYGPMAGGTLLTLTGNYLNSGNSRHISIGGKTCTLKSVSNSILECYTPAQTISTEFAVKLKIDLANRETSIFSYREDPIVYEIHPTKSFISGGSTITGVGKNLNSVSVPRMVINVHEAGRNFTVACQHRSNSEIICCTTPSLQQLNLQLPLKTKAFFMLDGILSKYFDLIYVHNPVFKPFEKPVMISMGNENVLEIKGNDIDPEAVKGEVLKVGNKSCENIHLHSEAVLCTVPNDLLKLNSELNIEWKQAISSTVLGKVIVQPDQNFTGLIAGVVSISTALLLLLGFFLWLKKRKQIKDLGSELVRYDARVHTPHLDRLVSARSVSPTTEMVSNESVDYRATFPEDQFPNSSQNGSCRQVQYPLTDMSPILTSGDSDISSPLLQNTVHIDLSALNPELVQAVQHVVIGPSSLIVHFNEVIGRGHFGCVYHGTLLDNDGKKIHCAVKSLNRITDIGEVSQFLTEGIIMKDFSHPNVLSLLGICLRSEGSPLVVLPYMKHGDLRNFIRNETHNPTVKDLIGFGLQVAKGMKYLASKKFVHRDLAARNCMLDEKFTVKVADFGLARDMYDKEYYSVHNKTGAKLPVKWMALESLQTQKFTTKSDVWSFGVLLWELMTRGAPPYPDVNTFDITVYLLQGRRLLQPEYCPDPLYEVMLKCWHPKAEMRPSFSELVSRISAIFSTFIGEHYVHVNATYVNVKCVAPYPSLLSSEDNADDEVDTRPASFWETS

## Cc1ccc(NC(=O)CCc2cccc(-c3cnc4[nH]ccc4c3)c2)cc1C(F)(F)F
[1]
  inhibition: 0%
[2]
  inhibition: 43%
[3]
  inhibition: 0%
[4]
  inhibition: 1%
[5]
  inhibition: 0%
[6]
  half-life: 72.6 min
[7]
  inhibition: 38%
[8]
  inhibition: 48%
[9]
  half-life: 97.8 min
[10]
  inhibition: 0%
[11]
  inhibition: 1%
[12]
  inhibition: 2%
[13]
  inhibition: 23%
[14]
  inhibition: 0%
[15]
  CL: 11.32 L/h/kg
[16]
  inhibition: 10%
[17]
  inhibition: 10%
[18]
  MRT: 1.76 h
[19]
  inhibition: 4%
[20]
  inhibition: 0%
[21]
  bioavailability: 39.8%
[22]
  inhibition: 30%
[23]
  inhibition: 0%
[24]
  inhibition: 0%
[25]
  inhibition: 0%
[26]
  MRT: 2.02 h
[27]
  inhibition: 0%
[28]
  inhibition: 1%
[29]
  inhibition: 6%
[30]
  Cmax: 498 ng/mL
[31]
  inhibition: 0%
[32]
  Cmax: 706 ng/mL
[33]
  inhibition: 7%
[34]
  inhibition: 25%
[35]
  inhibition: 9%
[36]
  inhibition: 0%
[37]
  inhibition: Active
[38]
  Tmax: 45 min
[39]
  inhibition: 2%
[40]
  inhibition: 8%
[41]
  CL/F: 154 mL/min/kg
[42]
  inhibition: 0%
[43]
  inhibition: 0%
[44]
  AUC(0-inf): 784 ng·h/mL
